Laboratory results from paper PMC9504056, “A Novel L-Phenylalanine Dipeptide Inhibits the Growth and Metastasis of Prostate Cancer Cells via Targeting DUSP1 and TNFSF9” (International Journal of Molecular Sciences, 2022).

Tests used:
TNFSF9 = target: T1, TNFSF9 (Homo sapiens, UniProt P41273); test: cellular thermal shift assay (CETSA), Western blot; type: cell-based; settings: PC3 cells treated 2 h with 0.01-100 µmol/L; heated at 53 °C for 3 min
T1 construct: endogenous protein in human PC3 prostate cancer cells, detected by Western blot (Abcam ab68185)

DUSP1 = target: T2, DUSP1 (Homo sapiens, UniProt P28562); test: cellular thermal shift assay (CETSA), Western blot; type: cell-based; settings: PC3 cells treated 2 h with 0.01-100 µmol/L; heated at 53 °C for 3 min
T2 construct: endogenous protein in human PC3 prostate cancer cells, detected by Western blot (Abcam ab61201)
T2 sequence (P28562 1-367): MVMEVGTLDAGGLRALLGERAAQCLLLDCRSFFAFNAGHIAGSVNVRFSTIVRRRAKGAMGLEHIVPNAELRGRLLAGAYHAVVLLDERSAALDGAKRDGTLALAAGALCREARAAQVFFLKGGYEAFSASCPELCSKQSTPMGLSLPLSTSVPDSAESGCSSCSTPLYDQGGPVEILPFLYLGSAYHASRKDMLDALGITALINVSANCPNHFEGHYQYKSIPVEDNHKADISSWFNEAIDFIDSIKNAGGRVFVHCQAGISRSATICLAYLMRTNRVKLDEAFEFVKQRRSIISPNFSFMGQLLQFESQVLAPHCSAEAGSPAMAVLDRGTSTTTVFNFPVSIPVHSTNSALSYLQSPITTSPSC

T1 sequence (P41273 whole entry): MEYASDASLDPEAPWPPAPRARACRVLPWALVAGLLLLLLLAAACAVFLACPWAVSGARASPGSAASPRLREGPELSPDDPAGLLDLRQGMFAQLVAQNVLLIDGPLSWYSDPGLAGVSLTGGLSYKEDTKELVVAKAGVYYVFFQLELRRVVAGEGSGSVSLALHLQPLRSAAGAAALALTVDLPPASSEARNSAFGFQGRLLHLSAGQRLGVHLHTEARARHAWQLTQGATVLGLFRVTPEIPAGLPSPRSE

SMILES: CCN(CC)CCOc1ccc(C[C@H](NC(=O)c2ccc(OCc3ccccc3)cc2)C(=O)N[C@H](CO)Cc2ccccc2)cc1 [HXL131]
- cellular thermal shift assay (CETSA), Western blot (TNFSF9): HXL131 could stably bind DUSP1 and TNFSF9 proteins
- cellular thermal shift assay (CETSA), Western blot (DUSP1): HXL131 could stably bind DUSP1 and TNFSF9 proteins
